According to ChEMBL document CHEMBL3045655, “Use of structure-based virtual screening in the investigation of novel human sialidase inhibitors” (Med Chem Res, 2010):
pIC50: −log10 of the molar value. The source made the active and inactive calls. No cut-off for these calls is given here.

Columns and labels:
Sialidase-4 = target: T1, Sialidase-4 (Homo sapiens, UniProt Q8WWR8); experiment: Inhibition of Homo sapiens (human) NEU4 expressed in HEK293 cells using 4MU-NeuAc as substrate after 10 to 30 min by fluorometric analysis; assay type: cell-based
T1 sequence (Q8WWR8 whole entry): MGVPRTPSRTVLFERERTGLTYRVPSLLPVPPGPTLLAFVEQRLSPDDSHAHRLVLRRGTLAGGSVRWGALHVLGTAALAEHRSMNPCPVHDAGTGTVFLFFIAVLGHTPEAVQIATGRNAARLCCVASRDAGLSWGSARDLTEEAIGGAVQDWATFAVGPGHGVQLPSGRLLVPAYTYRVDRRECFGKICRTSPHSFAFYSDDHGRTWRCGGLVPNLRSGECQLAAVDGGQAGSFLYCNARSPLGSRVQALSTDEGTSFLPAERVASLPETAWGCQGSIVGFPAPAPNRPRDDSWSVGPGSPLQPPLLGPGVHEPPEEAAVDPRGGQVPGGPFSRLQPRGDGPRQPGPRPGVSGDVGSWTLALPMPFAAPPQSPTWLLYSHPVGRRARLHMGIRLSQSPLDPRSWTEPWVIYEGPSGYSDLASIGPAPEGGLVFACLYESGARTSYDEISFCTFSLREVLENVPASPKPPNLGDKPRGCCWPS

[1] = target: Sialidase-1 (Homo sapiens) (UniProt Q99519); experiment: Inhibition of Homo sapiens (human) NEU1 expressed in HEK293 cells using 4MU-NeuAc as substrate at 1 mM after 10 to 30 min by fluorometric analysis; assay type: cell-based
Sialidase-3 = target: T2, Sialidase-3 (Homo sapiens, UniProt Q9UQ49); experiment: Inhibition of Homo sapiens (human) NEU3 expressed in HEK293 cells using mixed ganglioside as substrate after 10 to 30 min by fluorometric analysis; assay type: cell-based
T2 sequence (Q9UQ49 whole entry): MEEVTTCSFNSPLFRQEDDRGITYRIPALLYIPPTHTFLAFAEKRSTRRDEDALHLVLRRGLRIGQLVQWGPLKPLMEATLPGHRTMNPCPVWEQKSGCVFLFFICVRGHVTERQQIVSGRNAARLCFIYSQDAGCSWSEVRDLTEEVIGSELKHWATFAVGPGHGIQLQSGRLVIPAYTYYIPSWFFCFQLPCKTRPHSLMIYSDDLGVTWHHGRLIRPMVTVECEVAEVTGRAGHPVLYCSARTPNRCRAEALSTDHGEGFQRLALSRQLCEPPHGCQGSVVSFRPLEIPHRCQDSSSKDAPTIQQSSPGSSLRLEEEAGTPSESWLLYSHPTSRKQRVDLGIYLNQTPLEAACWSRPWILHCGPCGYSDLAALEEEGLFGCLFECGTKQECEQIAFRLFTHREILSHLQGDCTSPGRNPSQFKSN

[2] = target: T3, Sialidase-4 (Homo sapiens) (UniProt Q8WWR8); experiment: Inhibition of Homo sapiens (human) NEU4 expressed in HEK293 cells using 4MU-NeuAc as substrate at 1 mM after 10 to 30 min by fluorometric analysis
T3 sequence (whole entry): T1 sequence (Q8WWR8 whole entry)

[3] = target: T4, Sialidase-3 (Homo sapiens) (UniProt Q9UQ49); experiment: Inhibition of Homo sapiens (human) NEU3 expressed in HEK293 cells using mixed ganglioside as substrate at 1 mM after 10 to 30 min by fluorometric analysis; assay type: cell-based
T4 sequence (whole entry): T2 sequence (Q9UQ49 whole entry)

[4] = target: Sialidase-2 (Homo sapiens) (UniProt Q9Y3R4); conditions: HEK293, 1 mM
Sialidase-2 (Homo sapiens), sequence (Q9Y3R4 whole entry): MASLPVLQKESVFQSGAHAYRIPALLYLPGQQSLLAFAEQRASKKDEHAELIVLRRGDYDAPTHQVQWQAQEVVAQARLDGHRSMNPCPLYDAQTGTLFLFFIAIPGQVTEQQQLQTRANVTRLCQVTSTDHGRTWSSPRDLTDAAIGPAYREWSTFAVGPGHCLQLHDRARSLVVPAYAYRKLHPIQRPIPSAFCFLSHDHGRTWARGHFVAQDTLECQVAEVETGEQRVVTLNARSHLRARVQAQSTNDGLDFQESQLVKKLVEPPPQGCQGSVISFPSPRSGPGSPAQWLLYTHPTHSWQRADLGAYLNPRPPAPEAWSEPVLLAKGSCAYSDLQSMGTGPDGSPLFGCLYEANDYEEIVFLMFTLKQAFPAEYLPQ
Description: Inhibition of Homo sapiens (human) NEU2 expressed in HEK293 cells using 4MU-NeuAc as substrate at 1 mM after 10 to 30 min by fluorometric analysis

Compound	pIC50 (Sialidase-4)	inhibition [1]	pIC50 (Sialidase-3)	inhibition [2]	inhibition [3]	inhibition [4]
CC(=O)Nc1cc(F)c(C(=O)O)cc1NC(=O)c1ccc(-c2ccccc2)cc1	< 2.30	inactive	< 2.30			
CC(=O)N[C@H]1[C@H]([C@@H](O)[C@@H](O)CO)OC(C(=O)O)=C[C@@H]1O			4.22			
O=C(O)c1oc(C(=O)O)c(OCc2ccccc2)c1OCc1ccccc1	3.17	7%	3.04	56%	56%	40%
